Measured values taken from patent publication US20240101570A1 (AMGEN INC., priority 2020, published 2024).

Legend:
[1] = test system: HCT116 MTAP null cells; assay: HCT116 MTAP null cell proliferation / viability (CellTiter-Glo, 6 days); type: cell-based; conditions: HCT116-MTAP null, 144 h, HCT116 MTAP null cells, 6 days, CellTiter-Glo; read-out: HCT-116 MTAP null IC50
Procedure, shortened: (§1)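 Viability read by CellTiter-Glo after 6-day compound exposure of MTAP-null and wild-type HCT116 cells grown in RPMI 1640 with 10% FBS. Dosing used 1:3 steps from 1 or 10 μM (8-9 points) or 1:2 steps from 10 or 50 μM (22 points); IC50 taken where fitted curve crosses 50% of control.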

[2] = test system: HCT116 WT cells; assay: HCT116 WT cell proliferation / viability (CellTiter-Glo, 6 days); type: cell-based; conditions: Homo sapiens, HCT-116, 144 h, HCT116 WT cells, 6 days, CellTiter-Glo; read-out: HCT-116 WT IC50
Procedure, shortened: as §1

Compound	IC50 [1]	IC50 [2]
C[C@H]1OCc2c1c(N)nc1ccc(C(=O)N(C)Cc3ccc(C4CC4)cn3)cc21 [Example 356, (3R)-4-amino-N-((5-cyclopropyl-2-pyridinyl)methyl)-N,3-dimethyl-1,3-dihydrofuro[3,4-c]quinoline-8-carboxamide]	0.092 µM	5.36 µM
Nc1nc2cc(F)c(C(=O)N(Cc3ccc(C(F)(F)F)nn3)C3CC3)cc2c2c1COC2 [Example 357, 4-amino-N-cyclopropyl-7-fluoro-N-((6-(trifluoromethyl)-3-pyridazinyl)methyl)-1,3-dihydrofuro[3,4-c]quinoline-8-carboxamide]	0.115 µM	4.27 µM
CC(C)N(Cc1ccc(C(F)(F)F)nn1)C(=O)c1cc2c3c(c(N)nc2cc1F)COC3 [Example 358, 4-amino-7-fluoro-N-(2-propanyl)-N-((6-(trifluoromethyl)-3-pyridazinyl)methyl)-1,3-dihydrofuro[3,4-c]quinoline-8-carboxamide]	0.121 µM	8.16 µM
CN(Cc1ccc(C(F)(F)F)nn1)C(=O)c1cc2c3c(c(N)nc2cc1F)COC3 [Example 359, 4-amino-7-fluoro-N-methyl-N-((6-(trifluoromethyl)-3-pyridazinyl)methyl)-1,3-dihydrofuro[3,4-c]quinoline-8-carboxamide]	0.226 µM	10.2 µM
CCN(Cc1ccc(C(F)(F)F)cn1)C(=O)c1ccc2nc(N)c3c(c2c1)CO[C@@H]3C [Example 360, (3R)-4-amino-N-ethyl-3-methyl-N-((5-(trifluoromethyl)-2-pyridinyl)methyl)-1,3-dihydrofuro[3,4-c]quinoline-8-carboxamide]	0.053 µM	3.07 µM
CCN(Cc1ccc(C(F)(F)F)cn1)C(=O)c1cc2c3c(c(N)nc2cn1)COC3 [Example 361, 4-amino-N-ethyl-N-((5-(trifluoromethyl)-2-pyridinyl)methyl)-1,3-dihydrofuro[3,4-c][1,7]naphthyridine-8-carboxamide]	0.173 µM	7.75 µM
CC(C)N(Cc1ccc(C2CC2)nc1)C(=O)c1cc2c3c(c(N)nc2cc1F)COC3 [Example 363, 4-amino-N-((6-cyclopropyl-3-pyridinyl)methyl)-7-fluoro-N-(2-propanyl)-1,3-dihydrofuro[3,4-c]quinoline-8-carboxamide]	0.036 µM	1.18 µM
CC(C)N(Cc1ccc(C2CC2)cn1)C(=O)c1ccc2nc(N)c3c(c2c1)COC3 [Example 364, 4-amino-N-((5-cyclopropyl-2-pyridinyl)methyl)-N-(2-propanyl)-1,3-dihydrofuro[3,4-c]quinoline-8-carboxamide]	0.058 µM	1.76 µM
CC(C)N(Cc1ccc(C(F)(F)F)nn1)C(=O)c1cc2c3c(c(N)nc2cn1)COC3 [Example 366, 4-amino-N-(2-propanyl)-N-((6-(trifluoromethyl)-3-pyridazinyl)methyl)-1,3-dihydrofuro[3,4-c][1,7]naphthyridine-8-carboxamide]	0.175 µM	12.5 µM
Nc1nc2cc(F)c(C(=O)N(Cc3ccc(C(F)(F)F)cn3)C3CC3)cc2c2c1COC2 [Example 369, 4-amino-N-cyclopropyl-7-fluoro-N-((5-(trifluoromethyl)-2-pyridinyl)methyl)-1,3-dihydrofuro[3,4-c]quinoline-8-carboxamide]	0.124 µM	5.04 µM
CC(C)N(Cc1ccc(C2CC2)cn1)C(=O)c1cc2c3c(c(N)nc2cc1F)COC3 [Example 371, 4-amino-N-((5-cyclopropyl-2-pyridinyl)methyl)-7-fluoro-N-(2-propanyl)-1,3-dihydrofuro[3,4-c]quinoline-8-carboxamide]	0.01 µM	0.288 µM
CCOc1ccc(CN(C(=O)c2ccc3nc(N)c4c(c3c2)COC4)[C@H](C)COC)nn1 [Example 373, 4-amino-N-((6-ethoxy-3-pyridazinyl)methyl)-N-((2R)-1-methoxy-2-propanyl)-1,3-dihydrofuro[3,4-c]quinoline-8-carboxamide]	0.022 µM	2.98 µM
CCOc1ccc(CN(C(=O)c2ccc3nc(N)c4c(c3c2)CO[C@@H]4C)[C@H](C)COC)nn1 [Example 374, (3R)-4-amino-N-((6-ethoxy-3-pyridazinyl)methyl)-N-((2R)-1-methoxy-2-propanyl)-3-methyl-1,3-dihydrofuro[3,4-c]quinoline-8-carboxamide]	0.014 µM	0.286 µM
C[C@H]1OCc2c1c(N)nc1ccc(C(=O)N(C)Cc3ccc(C(F)(F)F)cn3)cc21 [Example 376, (3R)-4-amino-N,3-dimethyl-N-((5-(trifluoromethyl)-2-pyridinyl)methyl)-1,3-dihydrofuro[3,4-c]quinoline-8-carboxamide]	0.222 µM	15.2 µM
CCOc1ccc(CN(C(=O)c2cc3c4c(c(N)nc3cn2)COC4)C23CC(C2)C3)nn1 [Example 378, 4-amino-N-(bicyclo[1.1.1]pentan-1-yl)-N-((6-ethoxy-3-pyridazinyl)methyl)-1,3-dihydrofuro[3,4-c][1,7]naphthyridine-8-carboxamide]	0.294 µM	9.43 µM
CC(C)N(Cc1ccc(C2CC2)cn1)C(=O)c1cc2c3c(c(N)nc2cc1Cl)COC3 [Example 379, 4-amino-7-chloro-N-((5-cyclopropyl-2-pyridinyl)methyl)-N-(2-propanyl)-1,3-dihydrofuro[3,4-c]quinoline-8-carboxamide]	0.025 µM	0.764 µM
C[C@H]1OCc2c1c(N)nc1ccc(C(=O)N(Cc3ccc(C(F)(F)F)cn3)C34CC(C3)C4)cc21 [Example 380, (3R)-4-amino-N-(bicyclo[1.1.1]pentan-1-yl)-3-methyl-N-((5-(trifluoromethyl)-2-pyridinyl)methyl)-1,3-dihydrofuro[3,4-c]quinoline-8-carboxamide]	0.056 µM	4.1 µM
Nc1nc2cc(F)c(C(=O)N(Cc3ccc(C(F)(F)F)cn3)C34CC(C3)C4)cc2c2c1COC2 [Example 381, 4-amino-N-(bicyclo[1.1.1]pentan-1-yl)-7-fluoro-N-((5-(trifluoromethyl)-2-pyridinyl)methyl)-1,3-dihydrofuro[3,4-c]quinoline-8-carboxamide]	0.008 µM	1.56 µM
Nc1nc2cnc(C(=O)N(Cc3ccc(C(F)(F)F)nn3)C3CC3)cc2c2c1COC2 [Example 382, 4-amino-N-cyclopropyl-N-((6-(trifluoromethyl)-3-pyridazinyl)methyl)-1,3-dihydrofuro[3,4-c][1,7]naphthyridine-8-carboxamide]	1.16 µM	22.8 µM
CC(C)N(Cc1ccc(C2CC2)nc1)C(=O)c1cc2c3c(c(N)nc2cn1)COC3 [Example 383, 4-amino-N-((6-cyclopropyl-3-pyridinyl)methyl)-N-(2-propanyl)-1,3-dihydrofuro[3,4-c][1,7]naphthyridine-8-carboxamide]	1.31 µM	43 µM

Other lines, results leading:

IC50 [1]	IC50 [2]	Compound
0.076 µM	2.21 µM	CCN(Cc1ccc(C(F)(F)F)cn1)C(=O)c1ccc2nc(N)c3c(c2c1)COC3 [Example 362, 4-amino-N-ethyl-N-((5-(trifluoromethyl)-2-pyridinyl)methyl)-1,3-dihydrofuro[3,4-c]quinoline-8-carboxamide]
0.076 µM	6.5 µM	Nc1nc2cnc(C(=O)N(Cc3ccc(C(F)(F)F)cn3)C3CC3)cc2c2c1COC2 [Example 365, 4-amino-N-cyclopropyl-N-((5-(trifluoromethyl)-2-pyridinyl)methyl)-1,3-dihydrofuro[3,4-c][1,7]naphthyridine-8-carboxamide]
2.28 µM	> 50 µM	CN(Cc1ccc(C#N)cn1)C(=O)c1cc2c3c(c(N)nc2cn1)COC3 [Example 367, 4-amino-N-((5-cyano-2-pyridinyl)methyl)-N-methyl-1,3-dihydrofuro[3,4-c][1,7]naphthyridine-8-carboxamide]
0.065 µM	3.26 µM	C[C@H]1OCc2c1c(N)nc1ccc(C(=O)N(Cc3ccc(C4CC4)cn3)C3CC3)cc21 [Example 368, (3R)-4-amino-N-cyclopropyl-N-((5-cyclopropyl-2-pyridinyl)methyl)-3-methyl-1,3-dihydrofuro[3,4-c]quinoline-8-carboxamide]
0.029 µM	1.37 µM	Nc1nc2cc(F)c(C(=O)N(Cc3ccc(C4CC4)cn3)C3CC3)cc2c2c1COC2 [Example 370, 4-amino-N-cyclopropyl-N-((5-cyclopropyl-2-pyridinyl)methyl)-7-fluoro-1,3-dihydrofuro[3,4-c]quinoline-8-carboxamide]
0.11 µM	5.61 µM	CN(Cc1ccc(C2CC2)cn1)C(=O)c1cc2c3c(c(N)nc2cc1F)COC3 [Example 372, 4-amino-N-((5-cyclopropyl-2-pyridinyl)methyl)-7-fluoro-N-methyl-1,3-dihydrofuro[3,4-c]quinoline-8-carboxamide]
1.5 µM	6.89 µM	CN(Cc1ccc(C(F)(F)F)nn1)C(=O)c1cc2c3c(c(N)nc2cn1)COC3 [Example 375, 4-amino-N-methyl-N-((6-(trifluoromethyl)-3-pyridazinyl)methyl)-1,3-dihydrofuro[3,4-c][1,7]naphthyridine-8-carboxamide]
0.049 µM	2.06 µM	CC(C)N(Cc1ccc(C2CC2)cn1)C(=O)c1ccc2nc(N)c3c(c2c1)CO[C@@H]3C [Example 377, (3R)-4-amino-N-((5-cyclopropyl-2-pyridinyl)methyl)-3-methyl-N-(2-propanyl)-1,3-dihydrofuro[3,4-c]quinoline-8-carboxamide]
0.053 µM	1.38 µM	CC(C)N(Cc1ccc(C(F)(F)F)cn1)C(=O)c1ccc2nc(N)c3c(c2c1)CO[C@@H]3C [Example 384, (3R)-4-amino-3-methyl-N-(2-propanyl)-N-((5-(trifluoromethyl)-2-pyridinyl)methyl)-1,3-dihydrofuro[3,4-c]quinoline-8-carboxamide]
